We go through 4 compounds from patent publication US8507529B2, “Methods of using a nitroxide antioxidant in cosmetic and dermatological compositions” (Jarrow Formulas, Inc., priority 2005, dated 2013).

Data set [1] in a line: Peroxidation of multilamellar phosphatidylcholine (PC) liposomes induced by UVA, TBA assay (TBARS). As to conditions: 3.5 mM PC liposomes, 275 kJ/m^2 UVA; for level of UVA-induced lipid peroxidation (TBARS absorbance): 100 μM compounds alone or combined, FIG. 4.
Data set [2] can be described thus: Absorption spectra of 50 μM compounds in acetonitrile. Format: physicochemical. The following applies: 50 μM in acetonitrile, FIG. 2. Here is the method: FIG. 2. Absorption spectra of 50 μM compounds in acetonitrile.
Data set [3] can be described thus: Optical absorption spectra before and after UVA exposure (photostability). The data set is classed as physicochemical. The following applies: 100 μM in phosphate buffer pH 7.4, 275 kJ/m^2 UVA, ethyl acetate extraction, FIG. 3. Here is the method: FIG. 3. […] See Detailed Description for experimental details.
The reason for using buffer was to maintain the same medium as the peroxidation experiments so that comparisons between the optical absorption experiments and lipid peroxidation could be meaningful.
10 mM Stock solutions of TEMPOL and the photoactive ingredients were prepared in acetonitrile. […] The solutions were then transferred to a 24 multi-well plate for cell cultures (Orange Scientific, Cambrex BioScience, Walkerville, Inc.) which was placed on a brass block embedded on ice at a distance of 20 cm from the light source. […] After illumination, 2.4 ml of sample were collected from each well and extracted with the same volume of ethyl acetate. The organic phase was separated and its absorption spectrum was then run on a UV Kontron 941 spectrophotometer. For the non-illuminated samples, the same procedure was followed for the same length of time except that the samples were exposed to direct artificial laboratory working light.

The subject of a further data set is human dermal fibroblasts. The following applies: cited from earlier work.
Data set [4] relates to transgenic murine fibroblast culture. The following applies: transgenic murine fibroblast culture model of cutaneous photoaging; cited from earlier work.

Consider “2,2,6,6-tetramethyl-piperidin-4-yl-p-methoxy cinnamyloxy-1-oxyl [MC-NO]”, for which the “level of UVA-induced lipid peroxidation (TBARS absorbance)” value in data set [1] is “greatly reduced to almost control levels”. In data set [2], the “spectral profile and extinction coefficient” value is “same spectral profile and extinction coefficient as OMC”. The “change in spectral absorption after UVA exposure” value in data set [3] is “retains the majority of its original absorbance”.

As to `COc1ccc(C(=O)CC(=O)c2ccc(C(C)(C)C)cc2)cc1` [Parsol 1789, 4-tert-butyl-4′-methoxydibenzoylmethane], the “level of UVA-induced lipid peroxidation (TBARS absorbance) with Parsol 1789” value in data set [1] (100 μM Parsol 1789 alone or combined with 100 μM compound, FIG. 5) is reported as “significant increase”.

With `CC1(C)CC(O)CC(C)(C)N1[O]` [TEMPOL, 4-hydroxy-2,2,6,6,-tetramethyl-piperidine-1-oxyl], the “protection against UV radiation” value (in the data set with human dermal fibroblasts; in data set [4]) was “affords protection against UV radiation” in each case.

`CCCCC(CC)COC(=O)C=Cc1ccc(OC)cc1` (centres unmarked) [OMC, 2-ethylhexyl-4-methoxycinnamate]: the “level of UVA-induced lipid peroxidation (TBARS absorbance)” value in data set [1] is recorded as “seems to protect”. The “change in spectral absorption after UVA exposure” value in data set [3] is recorded as “strong decrease in spectral absorption”.
